Among the data in ChEMBL document CHEMBL3576821, “A potent antimicrobial compound isolated from Clathria cervicornis” (2015) are MIC values, retold here.

Values after ≈ are worked out from the molar mass of the structure shown.

Common to all, as to format: functional
In one assay the test system is Klebsiella pneumoniae. Briefly: Antimicrobial activity against Klebsiella pneumoniae ATCC 13883 assessed as bacterial growth inhibition after 24 hrs by standard broth microdilution method. The following applies: ATCC 13883, 24 h.
Another assay has as its system Pseudomonas aeruginosa. The assay is described as follows: Antimicrobial activity against Pseudomonas aeruginosa ATCC 10145 assessed as bacterial growth inhibition after 24 hrs by standard broth microdilution method. To be noted: ATCC 10145, 24 h.
In the next assay the test system is Acinetobacter baumannii. The assay is described as follows: Antimicrobial activity against Acinetobacter baumannii ATCC 19606 assessed as bacterial growth inhibition after 24 hrs by standard broth microdilution method. To be noted: ATCC 19606, 24 h.

For the molecule `O=C(O)c1cn(C2CC2)c2cc(N3CCNCC3)c(F)cc2c1=O` [CIPROFLOXACIN], the minimum inhibitory concentration (MIC) in the assay on Klebsiella pneumoniae worked out at 1 µg/mL (≈ 3.02 µM); with Pseudomonas aeruginosa it was 1 µg/mL (≈ 3.02 µM); in the assay on Acinetobacter baumannii, 2 µg/mL (≈ 6.04 µM).

`CC[C@H]1CCCC[C@@]2(C[C@@H]3CC[C@@H]4[C@H](C(=O)OCCCCCCCCCCCCCCCC(=O)N(CCCN)C[C@@H](O)CCN)[C@]5(CCC[C@@H](C)O5)N=C(N2)N34)O1` [CRAMBESCIDIN 800]: the results for the minimum inhibitory concentration (MIC) in the assay on Klebsiella pneumoniae, in the assay with Pseudomonas aeruginosa and in the assay on Acinetobacter baumannii were 1 µg/mL (≈ 1.25 µM), 1 µg/mL (≈ 1.25 µM) and 2 µg/mL (≈ 2.49 µM), respectively.

Consider `C[C@H]1COc2c(N3CCN(C)CC3)c(F)cc3c(=O)c(C(=O)O)cn1c23.C[C@H]1COc2c(N3CCN(C)CC3)c(F)cc3c(=O)c(C(=O)O)cn1c23.O` [LEVOFLOXACIN], for which, in the assay on Acinetobacter baumannii, the minimum inhibitory concentration (MIC) is 1 µg/mL.

Regarding `CN(C)[C@@H]1C(O)=C(C(N)=O)C(=O)[C@@]2(O)C(O)=C3C(=O)c4c(O)cccc4[C@@](C)(O)[C@H]3C[C@@H]12` [TETRACYCLINE], the values for the MIC in the assay with Klebsiella pneumoniae, in the assay on Pseudomonas aeruginosa and in the assay with Acinetobacter baumannii were 1 µg/mL (≈ 2.25 µM), 1 µg/mL (≈ 2.25 µM) and 2 µg/mL (≈ 4.5 µM), respectively.
